# Data published in PubChem BioAssay AID328 (DTP/NCI, 2004).
# Values joined by “and” are separate entries in the source; they are usually repeats but may differ in a detail not shown here. Equal entries are not always repeated. Inconclusive results and toxic doses are left out.
# Tested on: BDF1 mice, P388 leukemia ip, median survival T/C
# Assay: NCI In Vivo Anticancer Drug Screen. Data for tumor model P388 Leukemia (intraperitoneal) in B6D2F1 (BDF1) mice
# Conditions: endpoint: median survival time, higher = longer survival
# How it was run: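 In tumour-bearing mice, survival after compound treatment is set against the vehicle group and given as a quotient.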
# [1] = dose: 12.5 mg/kg/injection, schedule: Q01DX009 (ip), vehicle: saline with Tween-80
# [2] = dose: 25.0 mg/kg/injection, schedule: Q01DX009 (ip), vehicle: saline with Tween-80
# [3] = dose: 10.0 mg/kg/injection, schedule: Q01DX009 (ip), vehicle: Klucel (hydroxypropylcellulose) (HPC)
# [4] = dose: 50.0 mg/kg/injection, schedule: Q04DX003 (ip), vehicle: saline
# [5] = dose: 100.0 mg/kg/injection, schedule: Q01DX009 (ip), vehicle: Klucel (hydroxypropylcellulose) (HPC)
# [6] = dose: 100.0 mg/kg/injection, schedule: Q04DX003 (ip), vehicle: saline
# [7] = dose: 50.0 mg/kg/injection, schedule: Q01DX009 (ip), vehicle: saline with Tween-80
# [8] = dose: 100.0 mg/kg/injection, schedule: Q01DX009 (ip), vehicle: saline with Tween-80
# [9] = dose: 200.0 mg/kg/injection, schedule: Q01DX009 (ip), vehicle: saline with Tween-80
structure (smiles),measurement,setting,value
Cc1ccc(NC(=O)N(CCCl)N=O)cc1NC(=O)N(CCCl)N=O,T/C,"dose: 1.25 mg/kg/injection, schedule: Q04DX003 (ip), vehicle: other",179 % of control
same,T/C,"dose: 2.5 mg/kg/injection, schedule: Q04DX003 (ip), vehicle: other",175 % of control
same,T/C,"dose: 3.12 mg/kg/injection, schedule: Q01DX009 (ip), vehicle: other",204 % of control
same,T/C,"dose: 3.13 mg/kg/injection, schedule: Q01DX009 (ip), vehicle: saline with Tween-80",185 % of control
same,T/C,"dose: 5.0 mg/kg/injection, schedule: Q04DX003 (ip), vehicle: other",200 % of control
same,T/C,"dose: 6.25 mg/kg/injection, schedule: Q01DX009 (ip), vehicle: other",207 % of control
same,T/C,"dose: 6.25 mg/kg/injection, schedule: Q01DX009 (ip), vehicle: saline with Tween-80",221 % of control
same,T/C,"dose: 6.25 mg/kg/injection, schedule: Q04DX003 (ip), vehicle: other",166 % of control
same,T/C,[1],221 % of control
same,T/C,[2],113 % of control
same,T/C,"dose: 25.0 mg/kg/injection, schedule: Q04DX003 (ip), vehicle: other",177 % of control
CC1(C)CCc2c(ccc(C(=O)/C=C\c3ccccc3)c2O)O1,T/C,"dose: 1.25 mg/kg/injection, schedule: Q01DX009 (ip), vehicle: Klucel (hydroxypropylcellulose) (HPC)",109 % of control
same,T/C,"dose: 2.5 mg/kg/injection, schedule: Q01DX009 (ip), vehicle: Klucel (hydroxypropylcellulose) (HPC)",107 % of control
same,T/C,"dose: 5.0 mg/kg/injection, schedule: Q01DX009 (ip), vehicle: Klucel (hydroxypropylcellulose) (HPC)",102 % of control
same,T/C,[3],107 % of control
same,T/C,"dose: 20.0 mg/kg/injection, schedule: Q01DX009 (ip), vehicle: Klucel (hydroxypropylcellulose) (HPC)",100 % of control
same,T/C,"dose: 40.0 mg/kg/injection, schedule: Q01DX009 (ip), vehicle: Klucel (hydroxypropylcellulose) (HPC)",91 % of control
COc1cc([C@@H]2c3cc4c(cc3[C@H](O)[C@H]3COC(=O)[C@H]23)OCO4)cc(OC)c1OC,T/C,"dose: 1.0 mg/kg/injection, schedule: Q01DX010 (ip), vehicle: steriod suspending solution",118 % of control
same,T/C,"dose: 2.0 mg/kg/injection, schedule: Q01DX010 (ip), vehicle: carboxymethylcellulose (CMC)",171 % of control
same,T/C,"dose: 2.25 mg/kg/injection, schedule: Q01DX001 (ip), vehicle: other",115 % of control
same,T/C,"dose: 2.25 mg/kg/injection, schedule: Q01DX010 (ip), vehicle: other",150 % of control
same,T/C,"dose: 4.0 mg/kg/injection, schedule: Q01DX010 (ip), vehicle: carboxymethylcellulose (CMC)",95 % of control
same,T/C,"dose: 4.5 mg/kg/injection, schedule: Q01DX010 (ip), vehicle: other",154 % of control
same,T/C,"dose: 9.0 mg/kg/injection, schedule: Q01DX001 (ip), vehicle: other",115 % of control
same,T/C,"dose: 9.0 mg/kg/injection, schedule: Q01DX010 (ip), vehicle: other",95 % of control
CN(C)c1ccc(/C=C2\C=Cc3ccccc32)cc1Br,T/C,"dose: 25.0 mg/kg/injection, schedule: Q04DX003 (sc), vehicle: olive oil, sesame oil, peanut oil",95 % of control
same,T/C,"dose: 50.0 mg/kg/injection, schedule: Q04DX003 (sc), vehicle: olive oil, sesame oil, peanut oil",100 % of control
same,T/C,"dose: 100.0 mg/kg/injection, schedule: Q04DX003 (sc), vehicle: olive oil, sesame oil, peanut oil",87 % of control
O=C(CSCSCC(=O)Nc1ccc(C2=NCCN2)cc1)Nc1ccc(C2=NCCN2)cc1,T/C,[3],91 % of control
same,T/C,"dose: 12.5 mg/kg/injection, schedule: Q04DX003 (ip), vehicle: saline",100 % of control
same,T/C,"dose: 25.0 mg/kg/injection, schedule: Q01DX009 (ip), vehicle: Klucel (hydroxypropylcellulose) (HPC)",100 % of control and 115 % of control
same,T/C,"dose: 50.0 mg/kg/injection, schedule: Q01DX009 (ip), vehicle: Klucel (hydroxypropylcellulose) (HPC)",165 % of control
same,T/C,[4],104 % of control and 109 % of control
same,T/C,"dose: 75.0 mg/kg/injection, schedule: Q04DX003 (ip), vehicle: saline",104 % of control
same,T/C,[5],90 % of control
same,T/C,[6],114 % of control
same,T/C,"dose: 135.0 mg/kg/injection, schedule: Q04DX003 (ip), vehicle: saline",157 % of control
same,T/C,"dose: 200.0 mg/kg/injection, schedule: Q04DX003 (ip), vehicle: saline",157 % of control
O=C(O)C1CCCN1C(=O)CCS (stereo not drawn),T/C,"dose: 50.0 mg/kg/injection, schedule: Q01DX009 (ip), vehicle: saline",90 % of control
same,T/C,"dose: 100.0 mg/kg/injection, schedule: Q01DX009 (ip), vehicle: saline",90 % of control
same,T/C,"dose: 200.0 mg/kg/injection, schedule: Q01DX009 (ip), vehicle: saline",97 % of control
Oc1ccccc1C=Nc1ccccc1.Oc1ccccc1C=Nc1ccccc1.[Ni+2],T/C,"dose: 25.0 mg/kg/injection, schedule: Q04DX003 (ip), vehicle: saline sonified",100 % of control
same,T/C,"dose: 50.0 mg/kg/injection, schedule: Q04DX003 (ip), vehicle: saline sonified",113 % of control
C[Si]1(C)CCCSC1,T/C,[1],89 % of control
same,T/C,[2],91 % of control
same,T/C,[7],93 % of control
same,T/C,[8],103 % of control
CN(CCOc1ccccc1O)CCOc1ccccc1O,T/C,"dose: 100.0 mg/kg/injection, schedule: Q01DX001 (ip), vehicle: Klucel (hydroxypropylcellulose) (HPC)",120 % of control
same,T/C,"dose: 200.0 mg/kg/injection, schedule: Q01DX001 (ip), vehicle: Klucel (hydroxypropylcellulose) (HPC)",110 % of control
same,T/C,"dose: 400.0 mg/kg/injection, schedule: Q01DX001 (ip), vehicle: Klucel (hydroxypropylcellulose) (HPC)",105 % of control
O=c1/c(=C\C=C\c2ccccc2)sc2n1CCN=2,T/C,[7],92 % of control
same,T/C,[8],92 % of control
same,T/C,[9],92 % of control
COc1cc(C(=O)NCC2(C)OC3(OC(=O)C2O)C(=O)N/C(=C(\C=O)C(C)=O)OC3C(O)C2CN2C(C)=O)c2cccc(C)c2c1 (stereo not drawn),T/C,"dose: 0.05 mg/kg/injection, schedule: Q01DX010 (ip), vehicle: alkali diluted with saline",245 % of control
same,T/C,"dose: 0.1 mg/kg/injection, schedule: Q01DX010 (ip), vehicle: alkali diluted with saline",300 % of control
same,T/C,"dose: 12.5 micrograms/kg/injection, schedule: Q01DX010 (ip), vehicle: other",180 % of control
same,T/C,"dose: 25.0 micrograms/kg/injection, schedule: Q01DX010 (ip), vehicle: other",155 % of control
same,T/C,"dose: 50.0 micrograms/kg/injection, schedule: Q01DX010 (ip), vehicle: other",195 % of control
COc1cc(O)c(Cc2ccccc2O)c(O)c1C(=O)CCc1ccccc1,T/C,"dose: 0.5 mg/kg/injection, schedule: Q01DX009 (ip), vehicle: alcohol",100 % of control
same,T/C,"dose: 2.0 mg/kg/injection, schedule: Q01DX009 (ip), vehicle: alcohol",105 % of control
same,T/C,"dose: 4.0 mg/kg/injection, schedule: Q01DX009 (ip), vehicle: alcohol",97 % of control
same,T/C,"dose: 5.9 mg/kg/injection, schedule: Q01DX009 (ip), vehicle: alcohol",119 % of control
same,T/C,"dose: 9.0 mg/kg/injection, schedule: Q01DX009 (ip), vehicle: alcohol",101 % of control
CCC1COC(=O)N1 (stereo not drawn),T/C,"dose: 25.0 mg/kg/injection, schedule: Q04DX003 (ip), vehicle: saline",109 % of control
same,T/C,[4],104 % of control
same,T/C,[6],95 % of control
CN1CCCN(C)CC1,T/C,"dose: 75.0 mg/kg/injection, schedule: Q01DX009 (ip), vehicle: saline with Tween-80",103 % of control
same,T/C,"dose: 100.0 mg/kg/injection, schedule: Q04DX003 (ip), vehicle: saline with Tween-80",100 % of control
same,T/C,"dose: 150.0 mg/kg/injection, schedule: Q01DX009 (ip), vehicle: saline with Tween-80",119 % of control
same,T/C,"dose: 200.0 mg/kg/injection, schedule: Q04DX003 (ip), vehicle: saline with Tween-80",95 % of control
same,T/C,"dose: 300.0 mg/kg/injection, schedule: Q01DX009 (ip), vehicle: saline with Tween-80",107 % of control
same,T/C,"dose: 400.0 mg/kg/injection, schedule: Q04DX003 (ip), vehicle: saline with Tween-80",112 % of control
COc1ccc(C(O)c2ccccc2C(=O)Nc2ccccc2)cc1 (stereo not drawn),T/C,[8],90 % of control
same,T/C,[9],100 % of control
CN(C)c1ccc(C=C2C(=O)CC(C)(C)CC2=O)cc1,T/C,[7],105 % of control
same,T/C,[8],95 % of control
same,T/C,[9],97 % of control
Cc1ccc(S(=O)(=O)N(CCO)CC(C)O)cc1 (stereo not drawn),T/C,[5],100 % of control
same,T/C,"dose: 200.0 mg/kg/injection, schedule: Q01DX009 (ip), vehicle: Klucel (hydroxypropylcellulose) (HPC)",100 % of control
same,T/C,"dose: 400.0 mg/kg/injection, schedule: Q01DX009 (ip), vehicle: Klucel (hydroxypropylcellulose) (HPC)",100 % of control
Nn1c(-c2ccc([N+](=O)[O-])cc2)nc2ccccc2c1=O,T/C,[7],90 % of control
same,T/C,[8],91 % of control
same,T/C,[9],91 % of control
